Source: patent publication US9682066B2 (University of Cincinnati, priority 2012, dated 2017)

What was measured:
[1] = Brain pharmacokinetics after oral administration; format: in vivo; settings: rat, 4 mg/kg oral gavage, brain ECF
Description: A slight delay in Tmax was observed, consistent with the delay of appearance of the drug in systemic circulation.

C6 glioma [2] = experiment: In vivo anti-tumor efficacy of oral dosed letrozole; set-up: species or system rat; settings: 4 mg/kg/day oral gavage stopped after 15 days; scan on Day 45
Description: Rats received tumor implantation as described in Example 6. […] Animals were scanned 5, 10, and 15 days after treatment period to observe change in tumor volume. After 15 days, treatment was stopped. Animals were scanned again on Day 45 (30 days post cessation of treatment).

U373MG = experiment: Cytotoxicity of letrozole (MTT assay); format: cell-based; settings: Homo sapiens, U373 MG
[3] = Tumoral versus normal brain ECF pharmacokinetics in C6 glioma-bearing rats; format: in vivo; settings: female, Sprague-Dawley, rat, mean±SD; for AUC(0-t): 8 mg/kg IV bolus
MDA-MB-231 = experiment: Cytotoxicity of letrozole (MTT assay); format: cell-based; settings: Homo sapiens
[4] = Tumoral versus normal brain ECF pharmacokinetics in C6 glioma-bearing rats; format: in vivo, female Sprague-Dawley rats
Experimental: Histology of rat brains was performed as outlined in Apparaju et al., Pharmacokinetics of gemcitabine in tumor and non-tumor extracellular fluid of brain: an in vivo assessment in rats employing intracerebral microdialysis, Cancer Chemother. Pharmacol. 61: 223-29 (2008).

[5] = Plasma protein binding with non-specific binding correction; format: in vitro ADME; settings: NSB correction, concentration range 0.1-10 μM
Description: Results are presented as mean±SD.

in vivo = settings: female, Sprague-Dawley, rat, iv
Experimental: (§1) Experiments were carried out in female Sprague-Dawley rats weighing 200-250 g. […] Blood samples from jugular vein cannulation and dialysate samples from microdialysis probe implanted stereotactically into the striatum region of the brain were obtained every 30 minutes over 8 hours and analyzed by HPLC (fluorescence detection, Excitation λ, 230 nm; Emission λ, 295 nm). Microdialysate samples were corrected for in vivo relative recovery (9.5%), measured under similar experimental conditions.
(§2) In order to obtain the correct ECF concentrations from those obtained by bioanalysis of dialysate samples, the correction factor known as “% recovery” is employed. The % recovery for a compound can be obtained by in vivo or in vitro recovery analysis. […] In vitro relative recovery was calculated as follows: % recoveryin vitro=[C(dialysate)/C(reservoir)]×100
(§3) At the end of microdialysis, brain tissues were collected after transcardial perfusion for histological evaluation to confirm formation of tumor in the right striatum and immunohistochemistry to differentiate the expression of aromatase in tumoral and normal brain regions. The pharmacokinetic parameters (including time required to achieve maximum drug levels (Tmax), area under the concentrations-time curve (AUC) over a defined time interval, and peak or maximum concentrations (Cmax)) of both plasma and brain ECF were estimated by non-compartmental analysis using WinNonlin 6.2 (Pharsight Inc.).
(§4) The brain ECF concentrations were time-averaged over the collection interval and corrected for in vivo recovery. […] Results are presented as mean±SD. (N=9 for 4 and 8 mg/kg, N=6 for 6 and 12 mg/kg). […] Simultaneous plasma and ECF pharmacokinetic determination facilitated estimation of the relative brain distribution coefficient, calculated as (AUCbrain ecf/AUCplasma, ub).

MCF-7 = experiment: Cytotoxicity of letrozole (MTT assay); format: cell-based; settings: Homo sapiens, MCF7
C6 glioma [6] = settings: 4 mg/kg/day i.v.
Description: 10 days after tumor implantation, anesthetized rats were scanned on μPET scanner (Siemens Inveon) to obtain active tumor volume at Day 0.
Animals were scanned again 8-10 days post treatment to assess change in tumor volume.

rat glioma cell line C6 = experiment: Cytotoxicity of letrozole (MTT assay); format: cell-based
[7] = biological target: T1, aromatase activity in rat glioma cell line C6 (Rattus norvegicus, UniProt P22443); experiment: Aromatase activity (estradiol EIA assay); format: cell-based; settings: testosterone 0.1 μM, 2 days incubation
T1 construct: endogenous in cells; host or cells: C6 rat glioma cell line
T1 sequence (P22443 1-508): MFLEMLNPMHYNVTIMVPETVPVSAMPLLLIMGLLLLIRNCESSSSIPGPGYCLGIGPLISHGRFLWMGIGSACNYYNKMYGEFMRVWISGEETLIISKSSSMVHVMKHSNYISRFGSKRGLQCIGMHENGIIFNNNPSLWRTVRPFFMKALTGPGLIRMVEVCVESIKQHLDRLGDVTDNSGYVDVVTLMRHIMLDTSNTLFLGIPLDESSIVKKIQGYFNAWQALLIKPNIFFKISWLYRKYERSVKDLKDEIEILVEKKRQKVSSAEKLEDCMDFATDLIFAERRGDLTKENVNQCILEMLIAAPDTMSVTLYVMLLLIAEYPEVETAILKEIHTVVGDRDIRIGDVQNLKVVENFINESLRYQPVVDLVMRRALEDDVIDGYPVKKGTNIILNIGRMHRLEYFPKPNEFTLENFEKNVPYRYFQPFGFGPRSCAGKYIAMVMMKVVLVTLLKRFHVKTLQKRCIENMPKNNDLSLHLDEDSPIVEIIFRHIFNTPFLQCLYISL

[8] = Normal brain ECF (microdialysis) versus plasma pharmacokinetics, IV bolus; settings: for Cmax, Brain: brain ECF; for Cmax, Brain / AUC0-8 hr, Plasma ub (Unbound) / Cmax, Plasma ub (Unbound): mean±SD;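 as to all read-outs here: parameters by non-compartmental analysis, mean±SD, brain ECF sampled by microdialysis in freely moving rats and corrected for in vivo recovery, Kp as brain ECF AUC over unbound plasma AUC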
Experimental: as §1, §2, §3, §4

aromatase = experiment: Aromatase expression in rat glioma tissue (IHC); format: in vivo; settings: treatment group versus control group (high expression)
Experimental: Expression of aromatase in tumors from rats of both control and treatment groups was evaluated using immunohistochemical (IHC analysis). Rat ovary (FIG. 12(A)) was used as a positive control for aromatase expression.

T98G = experiment: Cytotoxicity of letrozole (MTT assay); format: cell-based; settings: Homo sapiens
[9] = test system: brain metastases from breast cancer; settings: cited from earlier work
[10] = female, Sprague-Dawley, rat, tumor-free brain ECF (left striatum, control), 8 mg/kg IV bolus, tumor-free brain ECF, mean±SD

N#Cc1ccc(C(c2ccc(C#N)cc2)n2cncn2)cc1 [letrozole, 4,4′-((1H-1,2,4-triazol-1-yl)methylene)dibenzonitrile]
Cmax [1]: 176 ± 23 ng/mL | Tmax [1]: 5.75 ± 1.8 h | AUC(0-t) ([1]; read-out: AUC0-8 hr): 976 ± 162 ng·h/mL | tumor course after cessation of treatment (C6 glioma [2]): tumors recurred once treatment was stopped | IC50 (U373MG): 4390 nM | Cmax ([3]; tumor-free brain ECF (left striatum, control), 4 mg/kg IV bolus, tumor-free brain ECF): 183 ± 13 ng/mL | AUC(0-t) ([3]; tumor-free brain ECF (left striatum, control), tumor-free brain ECF, read-out: AUC0-8 hr, Control): 2280 ± 428 ng·h/mL | AUC(0-t) ([3]; tumoral brain ECF (right striatum), tumoral brain ECF, read-out: AUC0-8 hr, Tumor): 4700 ± 555 ng·h/mL | IC50 (MDA-MB-231): > 100000 nM | Cmax, Tumor ([4]; 4 mg/kg IV bolus, tumoral brain ECF, mean±SD): 354 ± 34 ng/mL | Cmax, Tumor ([4]; 8 mg/kg IV bolus, tumoral brain ECF, mean±SD): 1022 ± 204 ng/mL | Tmax ([4]; female, Sprague-Dawley, rat, tumor-free brain ECF (left striatum, control), 4 mg/kg IV bolus, tumor-free brain ECF, mean±SD): 1.75 ± 0.5 h | AUC(0-t) ([4]; female, Sprague-Dawley, rat, tumor-free brain ECF (left striatum, control), 4 mg/kg IV bolus, tumor-free brain ECF, mean±SD, read-out: AUC0-8 hr, Control): 803 ± 216 ng·h/mL | Cmax [4, 10]: 475 ± 87 ng/mL | Tmax [4, 10]: 1.33 ± 0.3 h | AUC(0-t) ([4]; female, Sprague-Dawley, rat, tumoral brain ECF (right striatum), 4 mg/kg IV bolus, tumoral brain ECF, mean±SD, read-out: AUC0-8 hr, Tumor): 1160 ± 167 ng·h/mL | penetration of BBB and BTB ([4]; rats, microdialysis): effectively crosses the BBB and BTB | fraction unbound [5]: 0.38 | Kp (in vivo; brain ECF (striatum microdialysate) versus unbound plasma, 4 mg/kg): 0.51 | Kp (in vivo; brain ECF / unbound plasma, 4 mg/kg): 0.32 | Kp (in vivo; brain ECF / unbound plasma, 6 mg/kg): 0.98 | Kp (in vivo; brain ECF / unbound plasma, 8 mg/kg): 0.77 | Kp (in vivo; brain ECF / unbound plasma, 12 mg/kg): 0.8 | AUC(0-t) (in vivo; brain ECF, 4 mg/kg): 583 ± 189 ng·h/mL | Cmax (in vivo; brain ECF, 4 mg/kg): 132 ± 79 ng/mL | Tmax (in vivo; brain ECF, 4 mg/kg): 1.4 ± 0.6 h | AUC(0-t) (in vivo; brain ECF, 6 mg/kg): 2010 ± 137 ng·h/mL | AUC(0-t) (in vivo; brain ECF, 8 mg/kg): 2640 ± 286 ng·h/mL | Tmax (in vivo; brain ECF, 8 mg/kg): 1.33 ± 0.5 h | AUC(0-t) (in vivo; brain ECF, 12 mg/kg): 2550 ± 173 ng·h/mL | Tmax (in vivo; brain ECF, 12 mg/kg): 1.3 to 1.5 h | AUC(0-t) (in vivo; plasma (total), 4 mg/kg): 4780 ± 932 ng·h/mL | Cmax (in vivo; plasma (total), 4 mg/kg): 682 ± 24 ng/mL | AUC(0-t) (in vivo; plasma (total), 6 mg/kg): 5980 ± 146 ng·h/mL | Cmax (in vivo; plasma (total), 6 mg/kg): 916 ± 71 ng/mL | AUC(0-t) (in vivo; plasma (total), 8 mg/kg): 8830 ± 1080 ng·h/mL | Cmax (in vivo; plasma (total), 8 mg/kg): 1280 ± 182 ng/mL | AUC(0-t) (in vivo; plasma (total), 12 mg/kg): 8060 ± 1420 ng·h/mL | Cmax (in vivo; plasma (total), 12 mg/kg): 2070 ± 258 ng/mL | IC50 (MCF-7): < 100 nM | clinical condition of treated rats (C6 glioma [6]; throughout the treatment period): no clinical symptoms | tumor volume, treatment rat 8, day 8 (C6 glioma [6]; Day 0 volume 90.9 mm^3): 5.8 mm^3 | tumor volume, treatment rat 4, Day 5 (C6 glioma [6]; Day 0 volume 100.5 mm^3): 70.5 mm^3 | tumor volume, treatment rat 4, Day 10 (C6 glioma [6]; Day 0 volume 100.5 mm^3): 18.7 mm^3 | IC50 (rat glioma cell line C6): 110 nM | IC50 [7]: 100 nM | Cmax, Brain ([8]; 4 mg/kg IV bolus): 132 ± 79 ng/mL | AUC0-8 hr, Plasma ub (Unbound) ([8]; 4 mg/kg IV bolus): 1817 ± 354 ng·h/mL | Cmax, Plasma ub (Unbound) ([8]; 4 mg/kg IV bolus): 259 ± 9 ng/mL | AUC0-8 hr, Plasma ub (Unbound) ([8]; 6 mg/kg IV bolus): 2272 ± 56 ng·h/mL | Cmax, Plasma ub (Unbound) ([8]; 6 mg/kg IV bolus): 348 ± 27 ng/mL | Cmax, Brain ([8]; 8 mg/kg IV bolus): 376 ± 61 ng/mL | AUC0-8 hr, Plasma ub (Unbound) ([8]; 8 mg/kg IV bolus): 3355 ± 412 ng·h/mL | Cmax, Plasma ub (Unbound) ([8]; 8 mg/kg IV bolus): 485 ± 69 ng/mL | Cmax, Brain ([8]; 12 mg/kg IV bolus): 631 ± 22 ng/mL | AUC0-8 hr, Plasma ub (Unbound) ([8]; 12 mg/kg IV bolus): 3062 ± 539 ng·h/mL | Cmax, Plasma ub (Unbound) ([8]; 12 mg/kg IV bolus): 787 ± 98 ng/mL | dose linearity of brain and plasma pharmacokinetics ([8]; IV bolus 4, 6, 8, 12 mg/kg, linear regression of Cmax and AUC0-8hr): linear up to 8 mg/kg and potentially non-linear thereafter | aromatase expression in tumor sections (IHC) (aromatase): relatively low aromatase expression | IC50 (T98G): 2810 nM | clinical response of brain metastases, case report (Madhup et al.) ([9]; person, 5-mg tablets once daily, repeat CECT in 2005): significant reduction in the brain metastases | clinical response of brain metastases, case report (Goyal et al.) ([9]; postmenopausal person, 2.5 mg daily, 20 months later): complete recovery of neurological functions
